Measured values as given in US10220029B2, “Pharmaceutical composition comprising glutarimide derivatives and use thereof in the treatment of eosinophilic diseases” (OBSCHESTVO S ORGANICHENNOI OTVETSTVENNOSTIYU …, priority 2013, dated 2019).
Marks after values point to notes of the source that are not given here.

Legend:
Assay type in all cases: in vivo, guinea pig
[1] = test system: model of bronchial asthma in guinea pigs; test: Content of cell elements in BAL in the model of bronchial asthma in guinea pigs
Method: (§1) Bronchial asthma in guinea pigs was induced by a standard method [Ricciardolo F L, Nijkamp F, De Rose V, Folkerts G. The guinea pig as an animal model for asthma// Current Drug Targets. 2008 June; 9(6):452-65]. The animals were immunized by one parenteral administration of 0.5 mL of a solution comprising 100 μg/mL ovalbumin (Sigma) and 100 mg/mL aluminium hydroxide. Intact animals received a physiological saline solution in an amount of 0.5 mL.
(§2) On days 29, 30 and 31, hyperactivity of the respiratory airways was provoked by inhalation administration of ovalbumin in ascending concentrations of 0.1, 0.3, and 0.5 mg/mL on days 1, 2, and 3 of the provocation, respectively. The inhalation lasted 5 minutes or until asphyxia symptoms became apparent (fall to one side). On day 32, the animals received a challenging dose of ovalbumin (1 mg/mL) for 5 minutes, while assessing a bronchospastic reaction.
(§3) The studied compounds were administered to the animals once daily every day for 6 or 10 days; the administration was terminated two days before the administration of the challenging dose of antigen.
(§4) The bronchoalveolar lavage (BAL) and cardiac cavity blood were derived from the animals 24 hours after administration of the challenging dose. The BAL was collected under anesthesia by lavaging the lungs with 5 mL of a physiological saline solution heated to 37° C. through the trachea, using a syringe dosing device.
The absolute number of cell elements in 1 μL of the lavage (cytosis) was counted in the bronchoalveolar lavage, using the Goryaev camera. Then, the BAL was centrifuged at 200 g for 10 minutes. The residue was used to prepare swabs that were fixed in methanol and stained according to Romanovsky-Giemsa to count endopulmonary cytogram.
(§5) The study comprised 3 experiments, wherein the first one was directed to the evaluation of the effect of claimed compounds 1-6 on the cell composition of the BAL, the second and the third experiments were aimed at evaluating the effect of compounds 1 and 2 on the cell composition of the BAL, the cell composition of the blood, and on the bronchospasm severity.

[2] = test system: model of allergic rhinitis in guinea pigs; test: Clinical manifestations of allergic rhinitis in guinea pigs (sneezes, nose scratchings); settings: 14 mg/kg intragastric, 3 times; 2 hours after last ovalbumin; n = 8
Method: The model of allergic rhinitis in guinea pigs was realized by a standard method [Vishnu N. Thakare, M. M. Osama, Suresh R. Naik. […] 2013 September; 17(1):18-25].
Guinea pigs (250-300 g) were immunized with 4-time (on days 0, 7, 14, and 21) intragastric administration of ovalbumin (100 μg/pig) and aluminium hydroxide (5 mg/pig), both of which were diluted and suspended in a physiological saline solution. […], a solution of ovalbumin (60 mg/mL) was administered intranasally to each nostril of the animals at a dose 20 μL. On day 35, the animals received subcutaneously an ovalbumin solution (200 μg/mL, 25 μL); the animal back was previously shaved in the site of administration. Swelling and redness at the injection site served as a support of sensibilisation. On day 42 of the study, an ovalbumin solution (60 mg/mL, 20 μL/nostril) was administered intranasally. A group of pseudoimmunized animals was formed to control the formation of exactly allergic inflammation: on days 0, 7, 14, and 21, the pigs received a solution of aluminium hydroxide (5 mg/pig), and on days 28 and 35, they received a physiological saline solution, and on day 42, a solution of ovalbumin (60 mg/mL, 20 μL/nostril).
The studied compounds (14 mg/kg) were administered 3 times by the intragastric route: 48, 24, and 1 hour before the last administration of ovalbumin. The reference preparation, dexamethasone, was administered one time by the intragastric route, 3 hours before the last intranasal administration of ovalbumin.
Clinical manifestations, such as the number of sneezes and nose scratchings, were registered for 2 hours after the last administration of ovalbumin. Nasal lavage was taken 24 hours after the last administration of ovalbumin, and in this lavage, the total lymphocyte count and leukocyte formula were determined. The number of guinea pigs in a group was 8.

[3] = test system: model of bronchial asthma in guinea pigs; test: Content of cell elements in the blood in the model of bronchial asthma in guinea pigs; settings: Table 6 Experiment No. 1, 10 times, n = 8
Method: as §1, §2, §3, §4
The blood was analyzed with a hemocytometer to determine leykoformula.
as §5

[4] = Table 4, 14 mg/kg, 10 times of administration, n = 9
[5] = Table 5 Experiment No. 1, 0.045 mg/kg, 10 times, n = 8
[6] = Table 5 Experiment No. 1, 0.14 mg/kg, 10 times, n = 8
[7] = Table 5 Experiment No. 1, 14 mg/kg, 10 times, n = 8

## O=C1CCCC(=O)N1CCc1cnc[nH]1 [Compound 1, 1-(2-(1H-imidazol-4-yl)ethyl)piperidine-2,6-dione]
[1]; [4]
  Eosinophils in BAL: 0.89 ± 0.23*& 10^9/L
  Lymphocytes in BAL: 0.70 ± 0.13* 10^9/L
  Monocytes in BAL: 0.35 ± 0.09* 10^9/L
  Neutrophils in BAL: 0.36 ± 0.09 10^9/L
[1]; [5]
  Cytosis in BAL: 12.8 ± 0.2* 10^9/L
  Eosinophils in BAL: 0.45 ± 0.07*& 10^9/L
  Lymphocytes in BAL: 0.10 ± 0.04& 10^9/L
  Monocytes in BAL: 0.52 ± 0.092* 10^9/L
  Neutrophils in BAL: 0.19 ± 0.08 10^9/L
[1]; [6]
  Cytosis in BAL: 10.5 ± 0.2*& 10^9/L
  Eosinophils in BAL: 0.41 ± 0.10*& 10^9/L
  Lymphocytes in BAL: 0.13 ± 0.04& 10^9/L
  Monocytes in BAL: 0.43 ± 0.076* 10^9/L
  Neutrophils in BAL: 0.07 ± 0.01 10^9/L
[1]; [7]
  Cytosis in BAL: 14.6 ± 0.3* 10^9/L
  Eosinophils in BAL: 0.45 ± 0.12*& 10^9/L
  Lymphocytes in BAL: 0.15 ± 0.026*& 10^9/L
  Monocytes in BAL: 0.7 ± 0.16* 10^9/L
  Neutrophils in BAL: 0.15 ± 0.03* 10^9/L
[2]
  Number of nose scratchings/2 hours: 13.9 ± 2.6 &
  Number of sneezes/2 hours: 5.9 ± 1.1 &
[3]; 0.045 mg/kg
  Banded neutrophils in the blood: 0.31 ± 0.10 10^9/L
  Basophils in the blood: 0 ± 0 10^9/L
  Cytosis in the blood: 9.03 ± 1.40& 10^9/L
  Eosinophils in the blood: 0.19 ± 0.04& 10^9/L
  Lymphocytes in the blood: 4.80 ± 0.84* 10^9/L
  Monocytes in the blood: 0.29 ± 0.08 10^9/L
  Segmented neutrophils in the blood: 2.92 ± 0.65 10^9/L
[3]; 0.14 mg/kg
  Banded neutrophils in the blood: 0.19 ± 0.05& 10^9/L
  Basophils in the blood: 0 ± 0 10^9/L
  Cytosis in the blood: 9.11 ± 1.07*& 10^9/L
  Eosinophils in the blood: 0.09 ± 0.03& 10^9/L
  Lymphocytes in the blood: 5.25 ± 0.89* 10^9/L
  Monocytes in the blood: 0.33 ± 0.06* 10^9/L
  Segmented neutrophils in the blood: 2.23 ± 0.58& 10^9/L
[3]; 14 mg/kg
  Banded neutrophils in the blood: 0.27 ± 0.06* 10^9/L
  Basophils in the blood: 0 ± 0 10^9/L
  Cytosis in the blood: 8.90 ± 0.25*& 10^9/L
  Eosinophils in the blood: 0.13 ± 0.04& 10^9/L
  Lymphocytes in the blood: 4.45 ± 0.25* 10^9/L
  Monocytes in the blood: 0.33 ± 0.06* 10^9/L
  Segmented neutrophils in the blood: 3.66 ± 0.22* 10^9/L
